Assay results from US20100311714A1, “1H-IMIDAZO[4,5-c]QUINOLINONE COMPOUNDS” (priority 2009, published 2010).
Read-outs that look alike come from different tables or passages of the source.

Molecular target: T1, PI3K alfa (Homo sapiens, UniProt P42336)
T1 construct: His tag (C); made in house; host or cells: baculovirus BV1075; Tn5 (Trichoplusia ni) or TiniPro insect cells
Experiment: PI3K alpha kinase assay (Kinase-Glo luminescence)
Type: biochemical
How it was run: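 IC50 values come from a four-parameter logistic fit of percent inhibition at eight concentrations, typically 10 to 0.003 μM. Recombinant PI3Kα at 10 nM turned over 1 μM ATP with 10 μg/mL PI for 60 min at room temperature, and residual ATP was measured by Kinase-Glo.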

T1 sequence (P42336 with tags, fused parts or gaps limits assumed): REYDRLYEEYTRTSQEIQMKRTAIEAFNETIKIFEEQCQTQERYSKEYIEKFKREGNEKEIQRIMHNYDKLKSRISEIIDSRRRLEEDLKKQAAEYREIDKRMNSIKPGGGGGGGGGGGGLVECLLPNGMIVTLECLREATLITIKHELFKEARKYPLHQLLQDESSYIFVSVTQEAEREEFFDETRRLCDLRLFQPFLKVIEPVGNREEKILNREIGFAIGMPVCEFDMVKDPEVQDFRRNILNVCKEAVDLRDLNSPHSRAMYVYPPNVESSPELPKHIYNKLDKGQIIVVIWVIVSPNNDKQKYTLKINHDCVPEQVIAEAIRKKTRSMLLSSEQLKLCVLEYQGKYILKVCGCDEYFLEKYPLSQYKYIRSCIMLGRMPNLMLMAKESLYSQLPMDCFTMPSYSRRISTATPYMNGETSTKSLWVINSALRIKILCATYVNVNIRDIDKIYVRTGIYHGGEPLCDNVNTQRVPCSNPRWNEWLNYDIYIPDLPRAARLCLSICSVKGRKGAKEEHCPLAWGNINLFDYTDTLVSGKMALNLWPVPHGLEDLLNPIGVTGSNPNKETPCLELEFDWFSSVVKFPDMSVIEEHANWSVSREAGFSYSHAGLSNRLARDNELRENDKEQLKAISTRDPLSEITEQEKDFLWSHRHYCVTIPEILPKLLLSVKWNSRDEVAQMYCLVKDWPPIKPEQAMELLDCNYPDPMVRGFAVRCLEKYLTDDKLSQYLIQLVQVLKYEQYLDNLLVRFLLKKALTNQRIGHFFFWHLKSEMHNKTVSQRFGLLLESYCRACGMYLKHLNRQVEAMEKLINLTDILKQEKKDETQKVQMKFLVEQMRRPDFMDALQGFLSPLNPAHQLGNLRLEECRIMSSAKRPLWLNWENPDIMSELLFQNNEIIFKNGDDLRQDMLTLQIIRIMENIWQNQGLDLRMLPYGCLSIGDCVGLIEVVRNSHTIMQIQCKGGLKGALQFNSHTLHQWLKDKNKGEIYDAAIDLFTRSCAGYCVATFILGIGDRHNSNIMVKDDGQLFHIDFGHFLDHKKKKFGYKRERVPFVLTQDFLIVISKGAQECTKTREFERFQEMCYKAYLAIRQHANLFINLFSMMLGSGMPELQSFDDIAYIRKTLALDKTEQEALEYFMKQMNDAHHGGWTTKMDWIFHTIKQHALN

| SMILES | IC50 (read-out: PI3Kalfa/IC50) | IC50 (read-out: EPK_PI3Kalfa/IC50) |
| --- | --- | --- |
| COc1nc(N2CCNCC2)ccc1-n1c(=O)n(C)c2cnc3ccc(-c4cnc(N)c(C(F)(F)F)c4)cc3c21 [Example 9.2, 8-(6-Amino-5-trifluoromethyl-pyridin-3-yl)-1-(2-methoxy-6-piperazin-1-yl-pyridin-3-yl)-3-methyl-1,3-dihydro-imidazo[4,5-c]quinolin-2-one] | 18 nM |  |
| CNc1ncc(-c2ccc3ncc4c(c3c2)n(-c2ccc(N3CC[C@H](O)C3)nc2C)c(=O)n4C)cc1C(F)(F)F [Example 32.5, 1-[6-((S)-3-Hydroxy-pyrrolidin-1-yl)-2-methyl-pyridin-3-yl]-3-methyl-8-(6-methylamino-5-trifluoromethyl-pyridin-3-yl)-1,3-dihydro-imidazo[4,5-c]quinolin-2-one] |  | 9 nM |
| CCOc1cc(-c2ccc3ncc4c(c3c2)n(-c2ccc(OCCOC)nc2C)c(=O)n4C)cnc1COC [Example 22.1, 8-(5-Ethoxy-6-methoxymethyl-pyridin-3-yl)-1-[6-(2-methoxy-ethoxy)-2-methyl-pyridin-3-yl]-3-methyl-1,3-dihydro-imidazo[4,5-c]quinolin-2-one] |  | 188 nM |
| COc1ncc(-c2ccc3ncc4c(c3c2)n(-c2ccc(N3CC[C@H](O)C3)nc2C)c(=O)n4C)c(OC)n1 [Example 32.3, 8-(2,4-Dimethoxy-pyrimidin-5-yl)-1-[6-((S)-3-hydroxy-pyrrolidin-1-yl)-2-methyl-pyridin-3-yl]-3-methyl-1,3-dihydro-imidazo[4,5-c]quinolin-2-one] |  | 32 nM |
| Cc1nc(C(C)(C)O)ccc1-n1c(=O)n(C)c2cnc3ccc(-c4cncc(C5(C#N)CCC5)c4)cc3c21 [Example 31.8, 1-(5-{1-[6-(1-Hydroxy-1-methyl-ethyl)-2-methyl-pyridin-3-yl]-3-methyl-2-oxo-2,3-dihydro-1H-imidazo[4,5-c]quinolin-8-yl}-pyridin-3-yl)-cyclobutanecarbonitrile] |  | 31 nM |
| CCNc1ncc(-c2ccc3ncc4c(c3c2)n(-c2ccc(C(C)(C)O)nc2C)c(=O)n4C)cn1 [Example 31.7, 8-(2-Ethylamino-pyrimidin-5-yl)-1-[6-(1-hydroxy-1-methyl-ethyl)-2-methyl-pyridin-3-yl]-3-methyl-1,3-dihydro-imidazo[4,5-c]quinolin-2-one] |  | 75 nM |
| CCOc1cc(-c2ccc3ncc4c(c3c2)n(-c2ccc(N3CCCC3)nc2C)c(=O)n4C)cnc1COC [Example 25.2, 8-(5-Ethoxy-6-methoxymethyl-pyridin-3-yl)-3-methyl-1-(2-methyl-6-pyrrolidin-1-yl-pyridin-3-yl)-1,3-dihydro-imidazo[4,5-c]quinolin-2-one] |  | 67 nM |
| Cc1ccncc1-n1c(=O)n(C)c2cnc3ccc(-c4ccc(CO)nc4)cc3c21 [Example 4.1, 8-(6-Hydroxymethyl-pyridin-3-yl)-3-methyl-1-(4-methyl-pyridin-3-yl)-1,3-dihydro-imidazo[4,5-c]quinolin-2-one] | 230 nM |  |
| Cc1nc(N2CC[C@H](O)C2)ccc1-n1c(=O)n(C)c2cnc3ccc(-c4cncc(OC(C)C)c4)cc3c21 [Example 32.8, 1-[6-((S)-3-Hydroxy-pyrrolidin-1-yl)-2-methyl-pyridin-3-yl]-8-(5-isopropoxy-pyridin-3-yl)-3-methyl-1,3-dihydro-imidazo[4,5-c]quinolin-2-one] |  | 71 nM |
| CNc1ncc(-c2ccc3ncc4c(c3c2)n(-c2ccc(N3CC[C@H](O)C3)nc2C)c(=O)n4C)cn1 [Example 32.1, 1-[6-((S)-3-Hydroxy-pyrrolidin-1-yl)-2-methyl-pyridin-3-yl]-3-methyl-8-(2-methylamino-pyrimidin-5-yl)-1,3-dihydro-imidazo[4,5-c]quinolin-2-one] |  | 17 nM |
| COc1ncccc1-n1c(=O)n(C)c2cnc3ccc(-c4cnc5[nH]ccc5c4)cc3c21 [Example 1.2, 1-(2-Methoxy-pyridin-3-yl)-3-methyl-8-(1H-pyrrolo[2,3-b]pyridin-5-yl)-1,3-dihydro-imidazo[4,5-c]quinolin-2-one] | 15 nM |  |
| Cc1ncccc1-n1c(=O)n(C)c2cnc3ccc(-c4cnc(N(C)C)nc4)cc3c21 [Example 2.15, 8-(2-Dimethylamino-pyrimidin-5-yl)-3-methyl-1-(2-methyl-pyridin-3-yl)-1,3-dihydro-imidazo[4,5-c]quinolin-2-one] | 35 nM |  |
| CCOc1ccc(-c2ccc3ncc4c(c3c2)n(-c2cnccc2C)c(=O)n4C)cn1 [Example 4.2, 8-(6-Ethoxy-pyridin-3-yl)-3-methyl-1-(4-methyl-pyridin-3-yl)-1,3-dihydro-imidazo[4,5-c]quinolin-2-one] | 206 nM |  |
| CNc1ncc(-c2ccc3ncc4c(c3c2)n(-c2ccc(N3CC(O)C3)nc2C)c(=O)n4C)cc1C(F)(F)F [Example 29.4, 1-[6-(3-Hydroxy-azetidin-1-yl)-2-methyl-pyridin-3-yl]-3-methyl-8-(6-methylamino-5-trifluoromethyl-pyridin-3-yl)-1,3-dihydro-imidazo[4,5-c]quinolin-2-one] |  | 17 nM |
| CCOc1ncc(-c2ccc3ncc4c(c3c2)n(-c2cccnc2C)c(=O)n4C)cn1 [Example 2.5, 8-(2-Ethoxy-pyrimidin-5-yl)-3-methyl-1-(2-methyl-pyridin-3-yl)-1,3-dihydro-imidazo[4,5-c]quinolin-2-one] | 119 nM |  |
| CCNc1cc(-c2ccc3ncc4c(c3c2)n(-c2ccc(N3CCC3)nc2C)c(=O)n4C)cnc1CO [Example 23.8, 1-(6-Azetidin-1-yl-2-methyl-pyridin-3-yl)-8-(5-ethylamino-6-hydroxymethyl-pyridin-3-yl)-3-methyl-1,3-dihydro-imidazo[4,5-c]quinolin-2-one] |  | 14 nM |
| CNc1ncc(-c2ccc3ncc4c(c3c2)n(-c2ccc(N(C)CCO)nc2C)c(=O)n4C)cn1 [Example 26.2, 1-{6-[(2-Hydroxy-ethyl)-methyl-amino]-2-methyl-pyridin-3-yl}-3-methyl-8-(2-methylamino-pyrimidin-5-yl)-1,3-dihydro-imidazo[4,5-c]quinolin-2-one] |  | 63 nM |
| Cc1cccnc1-n1c(=O)n(C)c2cnc3ccc(-c4ccc(CO)nc4)cc3c21 [Example 3.9, 8-(6-Hydroxymethyl-pyridin-3-yl)-3-methyl-1-(3-methyl-pyridin-2-yl)-1,3-dihydro-imidazo[4,5-c]quinolin-2-one] | 383 nM |  |
| CNc1ncc(-c2ccc3ncc4c(c3c2)n(-c2ccc(N3CC(F)(F)C3)nc2C)c(=O)n4C)cn1 [Example 24.1, 1-[6-(3,3-Difluoro-azetidin-1-yl)-2-methyl-pyridin-3-yl]-3-methyl-8-(2-methylamino-pyrimidin-5-yl)-1,3-dihydro-imidazo[4,5-c]quinolin-2-one] |  | 49 nM |
| CCNc1cc(-c2ccc3ncc4c(c3c2)n(-c2ccc(N3CC(O)C3)nc2C)c(=O)n4C)cnc1CO [Example 29.2, 8-(5-Ethylamino-6-hydroxymethyl-pyridin-3-yl)-1-[6-(3-hydroxy-azetidin-1-yl)-2-methyl-pyridin-3-yl]-3-methyl-1,3-dihydro-imidazo[4,5-c]quinolin-2-one] |  | 9 nM |
| CCOc1cc(-c2ccc3ncc4c(c3c2)n(-c2ccc(F)nc2C)c(=O)n4C)cnc1COC [Example 7.5, 8-(5-Ethoxy-6-methoxymethyl-pyridin-3-yl)-1-(6-fluoro-2-methyl-pyridin-3-yl)-3-methyl-1,3-dihydro-imidazo[4,5-c]quinolin-2-one] |  | 94 nM |
| CCOc1cc(-c2ccc3ncc4c(c3c2)n(-c2cccnc2C)c(=O)n4C)cnc1COC [Example 2.28, 8-(5-Ethoxy-6-methoxymethyl-pyridin-3-yl)-3-methyl-1-(2-methyl-pyridin-3-yl)-1,3-dihydro-imidazo[4,5-c]quinolin-2-one] |  | 267 nM |
| CCOc1ccc(-c2ccc3ncc4c(c3c2)n(-c2ncccc2C)c(=O)n4C)cn1 [Example 3.6, 8-(6-Ethoxy-pyridin-3-yl)-3-methyl-1-(3-methyl-pyridin-2-yl)-1,3-dihydro-imidazo[4,5-c]quinolin-2-one] | 206 nM |  |
| Cc1ncccc1-n1c(=O)n(C)c2cnc3ccc(-c4ccc(CO)nc4)cc3c21 [Example 2.6, 8-(6-Hydroxymethyl-pyridin-3-yl)-3-methyl-1-(2-methyl-pyridin-3-yl)-1,3-dihydro-imidazo[4,5-c]quinolin-2-one] | 100 nM |  |
| CCNc1cc(-c2ccc3ncc4c(c3c2)n(-c2cccnc2C)c(=O)n4C)cnc1CO [Example 2.31, 8-(5-Ethylamino-6-hydroxymethyl-pyridin-3-yl)-3-methyl-1-(2-methyl-pyridin-3-yl)-1,3-dihydro-imidazo[4,5-c]quinolin-2-one] |  | 14 nM |
| CNc1ccc(-c2ccc3ncc4c(c3c2)n(-c2ccc(N3CCC3)nc2C)c(=O)n4C)cn1 [Example 23.4, 1-(6-Azetidin-1-yl-2-methyl-pyridin-3-yl)-3-methyl-8-(6-methylamino-pyridin-3-yl)-1,3-dihydro-imidazo[4,5-c]quinolin-2-one] |  | 27 nM |
| CNc1ncc(-c2ccc3ncc4c(c3c2)n(-c2ccc(N3CC(O)C3)nc2C)c(=O)n4C)cc1F [Example 29.3, 8-(5-Fluoro-6-methylamino-pyridin-3-yl)-1-[6-(3-hydroxy-azetidin-1-yl)-2-methyl-pyridin-3-yl]-3-methyl-1,3-dihydro-imidazo[4,5-c]quinolin-2-one] |  | 40 nM |
| Cc1nc(N2CCC2)ccc1-n1c(=O)n(C)c2cnc3ccc(-c4cncc(OC(C)C)c4)cc3c21 [Example 23.9, 1-(6-Azetidin-1-yl-2-methyl-pyridin-3-yl)-8-(5-isopropoxy-pyridin-3-yl)-3-methyl-1,3-dihydro-imidazo[4,5-c]quinolin-2-one] |  | 33 nM |
| Cc1nc(C(C)(C)O)ccc1-n1c(=O)n(C)c2cnc3ccc(-c4cncc(C(C)(C)C#N)c4)cc3c21 [Example 31.6, 2-(5-{1-[6-(1-Hydroxy-1-methyl-ethyl)-2-methyl-pyridin-3-yl]-3-methyl-2-oxo-2,3-dihydro-1H-imidazo[4,5-c]quinolin-8-yl}-pyridin-3-yl)-2-methyl-propionitrile] |  | 2 nM |
